Source: patent US20210186972A1, “FORMULATIONS AND METHODS FOR THE PREVENTION AND TREATMENT OF TUMOR METASTASIS AND TUMORIGENESIS” (THE UNITED STATES OF AMERICA, AS REPRESENTED BY THE …, priority 2018, published 2021)

Legend:
[1] = set-up: species or system NSG PANC1 mice; conditions: NSG (Nod/IL2gamma null), mouse, in vivo, po, 10 mg/kg, 1 h
[2] = test system: PC3M cells overexpressing eEF1A2; test: PNC disassembly in eEF1A2-overexpressing cells; type: cell-based; conditions: vs control vector
Source text: FIG. 39 is a graph showing that overexpression of eEF1A2 in PC3M cells increased the IC50 of metarrestin for PNC disassembly. PNC prevalence (%) is on the y-axis and the log [M] metarrestin is on the […]. eEF1A2 is shown by circles and the control vector is shown by squares.
eEF1As are multi-functional proteins, implicated in translation elongation, actin bundling, nuclear transport, and tRNA export. To evaluate whether eEF1A mediates the effect of metarrestin on cancer cells, eEF1A was either overexpressed or reduced through siRNA silencing. […] Thus, eEF1A2 enhances PNC structures, but is alone not sufficient to induce significant formation of PNCs in PNC-negative cells. To evaluate the functional link between the phenotype of metarrestin-induced PNC disassembly and eEF1A2, PNC disassembly in wild type and eEF1A2-overexpressing cancer cells was analyzed. Cells with and without over expression of eEF1A2-HA (48 hours after transfection with an efficiency at around 70%, FIGS. 61 and 64) were treated with metarrestin at 10 concentrations, and PNC prevalence was evaluated at 63× magnification. […] To evaluate whether eEF1A2 indeed regulates the metastatic phenotype, PANC1 cells with (PANC1 eEF1A2 O.E.) or without (PANC1 control) overexpression of eEF1A2 were orthotopically injected into NSG mice. Six weeks after implantation, organs were subjected to histopathological evaluation.

PC3M cells = test: Cell growth (INCUCYTE confluence), PC3M; type: cell-based, human
Source text: The confluence (%) is on the y-axis and the time (in hours) is on the x-axis. The top most line is GM02153-DMSO, the second line from the top is PC3M-DMSO, the third line from the top is GM02153-metarrestin, and the bottom line is PC3M-metarrestin.

in vivo = test: in vivo; set-up: species or system BALB/c mice; conditions: mouse
Protocol: Metarrestin was administered to female BALB/c mice, n=3 in the single dose and the repeat doses were administered to SCID-beige mice, n=3 per time point. The repeat dose study mice were given daily intraperitoneal injections for 4 weeks, with concentration measured 24 h after the last dose. Metarrestin was formulated in 5% NMP+20% PEG400+75% (10% […] in water).
BALB/c mice, 17-19 g, female, n=66, were purchased and had free access to food and water. They were dosed with metarrestin at 5 or 25 mg/kg (10 ml/kg) in 5% NMP [NMP (Sigma-Aldrich cat #270458), 20% PEG400 (Sigma-Aldrich cat #202398), and 75% 10% HPBCD (Sigma-Aldrich cat #H107)] via lower left abdominal quadrant injection (n=33 each dose). The animals were anesthetized with isoflurane and restrained manually at the designated time points. Approximately 120 μL of blood were taken from the animals into K2EDTA tubes via retro-orbital puncture. Blood samples were placed on ice and centrifuged (2,000 g, 5 min under 4° C.) to obtain plasma samples within 15 minutes. An aliquot of 20 μL plasma sample was protein-precipitated with 200 μL acetonitrile that contained 50 ng/mL IS (dexamethasone). […] Twenty-four hours after the final dose, the concentrations of metarrestin in plasma were analyzed.

Pol II transcription = Pol II transcription status: CUGBP and SC35 immunolabeling; type: cell-based
Source text: To further determine whether metarrestin interferes with Pol II transcription in general, CUGBP was immunolabeled. The steady state nuclear distribution of CUGBP, a multifunctional hnRNP protein highly enriched in the PNC, is dependent upon Pol II transcription.

GFP-RPL29 = test: Ribosome synthesis, inducible GFP-RPL29 cell line; type: cell-based; conditions: induced after exposure for 5 hours
Protocol: FIG. 24 is a panel showing that metarrestin interferes with ribosomal biogenesis. An inducible RPL29-GFP-expressing cell line synthesizes RPL29-GFP when treated with tetracyclin (2nd column). When cells were treated with 1 μM metarrestin before tetracycline induction, the newly synthesized proteins accumulated in the nucleoli and nuclei (right most panels) compared to the DMSO control treated cells (2nd from right panels). Scale bars=5 μm.
To examine whether the disruption of the nucleolar structure impacts ribosome synthesis, a cell line expressing inducible GFP-RPL29 (a ribosomal subunit) was used.

N=c1c2c(-c3ccccc3)c(-c3ccccc3)n(Cc3ccccc3)c2ncn1[C@H]1CC[C@H](O)CC1 [metarrestin]
Concentration in primary tumors above the IC90 of 0.75 μM [1]: more than 10 fold | IC50 for PNC disassembly with increased expression of eEF1A2 [2]: increased the inhibitory concentration 50 (IC50) | PC3M cell growth (PC3M cells; 0.6 μM, after 24 hours of treatment): did not affect PC3M or PANC1 cell growth | Cell growth in PC3M cancer cells (PC3M cells; 1 μM, extended time, INCUCYTE): preferentially inhibited cell growth | half-life (in vivo; female, BALB/c, ip, 25 mg/kg): 4.6 to 5.5 h | Bioavailability (in vivo): high bioavailability | Localization of CUGBP (Pol II transcription): without causing cytoplasmic relocation of CUGBP | SC35 distribution pattern (Pol II transcription): not significantly changed | Newly synthesized GFP-RPL29 in the cytoplasm (GFP-RPL29): largely undetected in the cytoplasm | Production of GFP-RPL29 and its nucleolar localization (GFP-RPL29): appeared unchanged
